According to patent US20250144094A1 (Erasca, Inc., priority 2021, published 2025):
pIC50: −log10 of the molar value.

Target: Recombinant human ULK1 (1-649) (Homo sapiens (Human), UniProt O75385)
Test: ULK1 ADP Glo kinase activity assay, new method (ULKtide peptide substrate)
Settings: 25° C., 40 minutes, read-out: ULK1 biochemical IC50
Procedure, shortened: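 GST-tagged human ULK1 (1-649) from Sf9 cells was reacted with ULKtide peptide and ATP for 40 min at 25 °C across 12-point compound dilutions from 10 μM. ADP formed was quantified by ADP-Glo luminescence; IC50 came from four-parameter fits relative to DMSO controls.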

Chain of Recombinant human ULK1 (1-649) (O75385 1-649): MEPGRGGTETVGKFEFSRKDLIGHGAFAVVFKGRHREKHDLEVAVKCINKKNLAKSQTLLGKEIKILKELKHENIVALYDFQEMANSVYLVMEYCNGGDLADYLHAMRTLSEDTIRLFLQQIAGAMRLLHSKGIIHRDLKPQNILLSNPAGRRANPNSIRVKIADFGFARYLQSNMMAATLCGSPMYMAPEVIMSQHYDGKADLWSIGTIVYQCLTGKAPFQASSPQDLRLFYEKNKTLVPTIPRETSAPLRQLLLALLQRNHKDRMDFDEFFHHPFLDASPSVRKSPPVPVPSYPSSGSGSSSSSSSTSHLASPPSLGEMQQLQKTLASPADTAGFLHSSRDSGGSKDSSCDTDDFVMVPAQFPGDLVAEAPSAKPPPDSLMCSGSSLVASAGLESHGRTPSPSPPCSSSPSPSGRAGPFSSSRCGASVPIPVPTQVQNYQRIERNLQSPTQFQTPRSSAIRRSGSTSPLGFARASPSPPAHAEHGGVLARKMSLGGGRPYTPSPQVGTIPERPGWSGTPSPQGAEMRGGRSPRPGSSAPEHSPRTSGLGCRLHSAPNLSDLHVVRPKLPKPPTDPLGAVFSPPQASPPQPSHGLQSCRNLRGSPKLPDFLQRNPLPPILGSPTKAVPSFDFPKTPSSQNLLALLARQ

| Compound | pIC50 |
| --- | --- |
| CSc1cc2c(cc1Nc1ncc(C(F)(F)F)c(-c3cc4c(s3)C(=O)N(C3CC3)CCS4(=O)=O)n1)CCNC2 [Example 247, 4-cyclopropyl-7-(2-((7-(methylthio)-1,2,3,4-tetrahydroisoquinolin-6-yl)amino)-5-(trifluoromethyl)pyrimidin-4-yl)-3,4-dihydrothieno[2,3-f][1,4]thiazepin-5(2H)-one 1,1-dioxide] | ≥ 8.30 |
| CCc1cc2c(cc1Nc1ncc(C(F)(F)F)c(-c3cc4c(s3)C(=O)N(CC(F)(F)F)CCS4(=O)=O)n1)CNCC2 [Example 258, 7-(2-((6-ethyl-1,2,3,4-tetrahydroisoquinolin-7-yl)amino)-5-(trifluoromethyl)pyrimidin-4-yl)-4-(2,2,2-trifluoroethyl)-3,4-dihydrothieno[2,3-f][1,4]thiazepin-5(2H)-one 1,1-dioxide] | ≥ 8.30 |
| Cc1cnc(Nc2cc3c(cc2Cl)CNCC3)nc1-c1cc2c(s1)C(=O)N(C)CCS2(=O)=O [Example 259, 7-(2-((7-chloro-1,2,3,4-tetrahydroisoquinolin-6-yl)amino)-5-methylpyrimidin-4-yl)-4-methyl-3,4-dihydrothieno[2,3-f][1,4]thiazepin-5(2H)-one 1,1-dioxide] | ≥ 8.30 |
| Cc1cnc(Nc2cc3c(cc2C2CC2)CNCC3)nc1-c1cc2c(s1)C(=O)N(C1CC1)CCS2(=O)=O [Example 260, 4-cyclopropyl-7-(2-((7-cyclopropyl-1,2,3,4-tetrahydroisoquinolin-6-yl)amino)-5-methylpyrimidin-4-yl)-3,4-dihydrothieno[2,3-f][1,4]thiazepin-5(2H)-one 1,1-dioxide] | ≥ 8.30 |
| O=C1c2sc(-c3nc(Nc4cc5c(cc4C4CC4)CNCC5)ncc3C3CC3)cc2S(=O)(=O)CCN1C1CC1 [Example 261, 4-cyclopropyl-7-(5-cyclopropyl-2-((7-cyclopropyl-1,2,3,4-tetrahydroisoquinolin-6-yl)amino)pyrimidin-4-yl)-3,4-dihydrothieno[2,3-f][1,4]thiazepin-5(2H)-one 1,1-dioxide] | ≥ 8.30 |
| CCc1cc2c(cc1Nc1ncc(C(F)(F)F)c(-c3cc4c(s3)C(=O)N(C3COC3)CCS4(=O)=O)n1)CNCC2 [Example 262, 7-(2-((6-ethyl-1,2,3,4-tetrahydroisoquinolin-7-yl)amino)-5-(trifluoromethyl)pyrimidin-4-yl)-4-(oxetan-3-yl)-3,4-dihydrothieno[2,3-f][1,4]thiazepin-5(2H)-one 1,1-dioxide] | ≥ 8.30 |
| CC(C)c1cc2c(cc1Nc1ncc(C(F)(F)F)c(-c3cc4c(s3)C(=O)N(C3CC3)CCS4(=O)=O)n1)CCNC2 [Example 263, 4-cyclopropyl-7-(2-((7-isopropyl-1,2,3,4-tetrahydroisoquinolin-6-yl)amino)-5-(trifluoromethyl)pyrimidin-4-yl)-3,4-dihydrothieno[2,3-f][1,4]thiazepin-5(2H)-one 1,1-dioxide] | ≥ 8.30 |
| CCN1CCc2cc(Nc3ncc(C(F)(F)F)c(-c4cc5c(s4)C(=O)N(C4CC4)CCS5(=O)=O)n3)c(C(C)C)cc2C1 [Example 267, 4-cyclopropyl-7-(2-((2-ethyl-7-isopropyl-1,2,3,4-tetrahydroisoquinolin-6-yl)amino)-5-(trifluoromethyl)pyrimidin-4-yl)-3,4-dihydrothieno[2,3-f][1,4]thiazepin-5(2H)-one 1,1-dioxide] | ≥ 8.30 |
| CC(C)c1cc2c(cc1Nc1ncc(C(F)(F)F)c(-c3cc4c(s3)C(=O)N(C3CC3)CCS4(=O)=O)n1)CCN(CC1COC1)C2 [Example 269, 4-cyclopropyl-7-(2-((7-isopropyl-2-(oxetan-3-ylmethyl)-1,2,3,4-tetrahydroisoquinolin-6-yl)amino)-5-(trifluoromethyl)pyrimidin-4-yl)-3,4-dihydrothieno[2,3-f][1,4]thiazepin-5(2H)-one 1,1-dioxide] | ≥ 8.30 |

Second part, the molecule after the results:

| pIC50 | Compound |
| --- | --- |
| ≥ 8.30 | CC(C)N1CCc2cc(Nc3ncc(C(F)(F)F)c(-c4cc5c(s4)C(=O)N(C4CC4)CCS5(=O)=O)n3)c(C3CC3)cc2C1 [Example 248, 4-cyclopropyl-7-(2-((7-cyclopropyl-2-isopropyl-1,2,3,4-tetrahydroisoquinolin-6-yl)amino)-5-(trifluoromethyl)pyrimidin-4-yl)-3,4-dihydrothieno[2,3-f][1,4]thiazepin-5(2H)-one 1,1-dioxide] |
| ≥ 8.30 | O=C1c2sc(-c3nc(Nc4cc5c(cc4C4CC4)CN(CCF)CC5)ncc3C(F)(F)F)cc2S(=O)(=O)CCN1C1CC1 [Example 249, 4-cyclopropyl-7-(2-((7-cyclopropyl-2-(2-fluoroethyl)-1,2,3,4-tetrahydroisoquinolin-6-yl)amino)-5-(trifluoromethyl)pyrimidin-4-yl)-3,4-dihydrothieno[2,3-f][1,4]thiazepin-5(2H)-one 1,1-dioxide] |
| ≥ 8.30 | CN1CCS(=O)(=O)c2cc(-c3nc(Nc4ccc(N5CCN(CC6CC6)CC5)cc4C4CC4)ncc3C(F)(F)F)sc2C1=O [Example 250, 7-(2-((2-cyclopropyl-4-(4-(cyclopropylmethyl)piperazin-1-yl)phenyl)amino)-5-(trifluoromethyl)pyrimidin-4-yl)-4-methyl-3,4-dihydrothieno[2,3-f][1,4]thiazepin-5(2H)-one 1,1-dioxide] |
| ≥ 8.30 | CN1CCC(c2ccc(Nc3ncc(C(F)(F)F)c(-c4cc5c(s4)C(=O)N(C4CC4)CCS5(=O)=O)n3)c(C3CC3)c2)CC1 [Example 252, 4-cyclopropyl-7-(2-((2-cyclopropyl-4-(1-methylpiperidin-4-yl)phenyl)amino)-5-(trifluoromethyl)pyrimidin-4-yl)-3,4-dihydrothieno[2,3-f][1,4]thiazepin-5(2H)-one 1,1-dioxide] |
| ≥ 8.30 | CCN1CCC(c2ccc(Nc3ncc(C(F)(F)F)c(-c4cc5c(s4)C(=O)N(C4CC4)CCS5(=O)=O)n3)c(C3CC3)c2)CC1 [Example 253, 4-cyclopropyl-7-(2-((2-cyclopropyl-4-(1-ethylpiperidin-4-yl)phenyl)amino)-5-(trifluoromethyl)pyrimidin-4-yl)-3,4-dihydrothieno[2,3-f][1,4]thiazepin-5(2H)-one 1,1-dioxide] |
| ≥ 8.30 | O=C1c2sc(-c3nc(Nc4ccc(C5CCN(CC6COC6)CC5)cc4C4CC4)ncc3C(F)(F)F)cc2S(=O)(=O)CCN1C1CC1 [Example 254, 4-cyclopropyl-7-(2-((2-cyclopropyl-4-(1-(oxetan-3-ylmethyl)piperidin-4-yl)phenyl)amino)-5-(trifluoromethyl)pyrimidin-4-yl)-3,4-dihydrothieno[2,3-f][1,4]thiazepin-5(2H)-one 1,1-dioxide] |
| ≥ 8.30 | CCN1CCN(c2ccc(Nc3ncc(C(F)(F)F)c(-c4cc5c(s4)C(=O)N(C4CC4)CCS5(=O)=O)n3)c(C3CC3)c2)CC1 [Example 255, 4-cyclopropyl-7-(2-((2-cyclopropyl-4-(4-ethylpiperazin-1-yl)phenyl)amino)-5-(trifluoromethyl)pyrimidin-4-yl)-3,4-dihydrothieno[2,3-f][1,4]thiazepin-5(2H)-one 1,1-dioxide] |
| ≥ 8.30 | O=C1c2sc(-c3nc(Nc4cc5c(cc4C4CC4)CN(CC4CC4)CC5)ncc3C(F)(F)F)cc2S(=O)(=O)CCN1C1COC1 [Example 256, 7-(2-((7-cyclopropyl-2-(cyclopropylmethyl)-1,2,3,4-tetrahydroisoquinolin-6-yl)amino)-5-(trifluoromethyl)pyrimidin-4-yl)-4-(oxetan-3-yl)-3,4-dihydrothieno[2,3-f][1,4]thiazepin-5(2H)-one 1,1-dioxide] |
| ≥ 8.30 | O=C1c2sc(-c3nc(Nc4cc5c(cc4C4CC4)CN(CC4COC4)CC5)ncc3C(F)(F)F)cc2S(=O)(=O)CCN1C1COC1 [Example 257, 7-(2-((7-cyclopropyl-2-(oxetan-3-ylmethyl)-1,2,3,4-tetrahydroisoquinolin-6-yl)amino)-5-(trifluoromethyl)pyrimidin-4-yl)-4-(oxetan-3-yl)-3,4-dihydrothieno[2,3-f][1,4]thiazepin-5(2H)-one 1,1-dioxide] |
| ≥ 8.30 | CCc1cc(N2CCNCC2)ccc1Nc1ncc(C(F)(F)F)c(-c2cc3c(s2)C(=O)N(C2CC2)CCS3(=O)=O)n1 [Example 264, 4-cyclopropyl-7-(2-((2-ethyl-4-(piperazin-1-yl)phenyl)amino)-5-(trifluoromethyl)pyrimidin-4-yl)-3,4-dihydrothieno[2,3-f][1,4]thiazepin-5(2H)-one 1,1-dioxide] |
| ≥ 8.30 | CCc1cc(N2CCN(CC3CC3)CC2)ccc1Nc1ncc(C(F)(F)F)c(-c2cc3c(s2)C(=O)N(C2CC2)CCS3(=O)=O)n1 [Example 265, 4-cyclopropyl-7-(2-((4-(4-(cyclopropylmethyl)piperazin-1-yl)-2-ethylphenyl)amino)-5-(trifluoromethyl)pyrimidin-4-yl)-3,4-dihydrothieno[2,3-f][1,4]thiazepin-5(2H)-one 1,1-dioxide] |
| ≥ 8.30 | CCc1cc(N2CCN(CC3COC3)CC2)ccc1Nc1ncc(C(F)(F)F)c(-c2cc3c(s2)C(=O)N(C2CC2)CCS3(=O)=O)n1 [Example 266, 4-cyclopropyl-7-(2-((2-ethyl-4-(4-(oxetan-3-ylmethyl)piperazin-1-yl)phenyl)amino)-5-(trifluoromethyl)pyrimidin-4-yl)-3,4-dihydrothieno[2,3-f][1,4]thiazepin-5(2H)-one 1,1-dioxide] |
| ≥ 8.30 | CC(C)c1cc2c(cc1Nc1ncc(C(F)(F)F)c(-c3cc4c(s3)C(=O)N(C3CC3)CCS4(=O)=O)n1)CCN(CC1CC1)C2 [Example 268, 4-cyclopropyl-7-(2-((2-(cyclopropylmethyl)-7-isopropyl-1,2,3,4-tetrahydroisoquinolin-6-yl)amino)-5-(trifluoromethyl)pyrimidin-4-yl)-3,4-dihydrothieno[2,3-f][1,4]thiazepin-5(2H)-one 1,1-dioxide] |
| ≥ 8.30 | O=C1c2sc(-c3nc(Nc4cc5c(cc4C4CC4)CCNC5)ncc3C(F)(F)F)cc2S(=O)(=O)CCN1C1COC1 [Example 270, 7-(2-((6-cyclopropyl-1,2,3,4-tetrahydroisoquinolin-7-yl)amino)-5-(trifluoromethyl)pyrimidin-4-yl)-4-(oxetan-3-yl)-3,4-dihydrothieno[2,3-f][1,4]thiazepin-5(2H)-one 1,1-dioxide] |
